Data set [1] can be described thus: mouse plasma stability test. The data set is classed as in vitro ADME. Particulars: 10 μmol/1, 37° C. As for the experimental part: After defined periods of time with respect to the addition of said compounds to the mouse-plasma (t=0, 0.5, 1, 2, 4 h ), equal portions were isolated from the plasma, separated with HPLC and analyzed by mass spectrometry. During all these steps, the temperature was kept constant at 37° C. In the following table, the plasma stability of compounds according to the invention was compared to one of the selected compounds from EP 0 663 393 A1.

Data set [2] addresses T1, AKT (Homo sapiens, UniProt P31749). The experiment in a line: cellular AKT activity assay (GSK-3 Ser21/Ser9 phosphorylation in LNCaP cells, immunoblot). The data set is classed as cell-based. Further details: endogenous in cells; host or cells: LNCaP prostate cancer cells. Particulars: 1 h treatment, inhibitors 6 μM to 187 nM, read-out: values found for effect on AKT activity in living cells (level of GSK-3-Ser21/Ser9 phosphorylation). An excerpt: Additionally to Example 3 the acticity of compounds according to the invention was studied on a cellular AKT activity assay as follows:
Prostate cancer cell line LNCaP was passaged in RPMI 1640 with 10% fetal calf serum, 50 units/ml penicillin, and 50 units/ml streptomycin. LNCaP cells were characterized by a constitutive activation of AKT. Constitutive active AKT phosphorylates glycogen synthase kinase-3 (GSK-3) at Ser21/Ser9 in LNCaP cells. To measure the effect of compounds on the activity of AKT in living cells, LNCaP cells were treated with various concentrations of inhibitors (6 μM to 187 nM). After 1 h, the cells were harvested in lysis solution containing 50 mM HEPES (pH 7.0), 150 mM NaCl, 1.5 mM MgCl2 ,1 mM EGTA, 100 mM NaF, 10 mM sodium PPi, 10% glycerol, 1% Triton X-100, 1 mM Na3 […], […], 5 mM iodoacetic acid, and […]. The proteins from whole cell extracts were electrophoresed on 7.5% SDS/PAGE gels. Afterwards, proteins were transferred onto Nitrocellulose filter and immunoblotting using the enhanced chemiluminescence (ECL) detection system (Amersham Pharmacia) was performed. The level of GSK-3-Ser21/Ser9 phosphorylation was thereby determined using polyclonal anti-P-GSK-3-Ser-21/9 antibody (rabbit; New England Biolabs).

Data set [3] has as its target T1, AKT. The experiment in a line: ELISA-based AKT kinase assay. It counts as biochemical. Further details: made in house; host or cells: Sf9 insect cells. Particulars: AKT expressed in Sf9 cells, substrate peptide 300 nM, ATP 5 μM, 30 min at room temperature. From the text: In order to study AKT inhibitory activity of the compounds according to the invention, an ELISA-based assay was developed for AKT. The assay design utilized a N-terminally biotinylated substrate peptide. When this substrate was phosphorylated by the AKT kinase, the product was recognized by a substrate/sequence-specific antibody known to bind to particular phosphorylated serine residues. For this assay, a Biotin-[…] peptide and anti-phospho-GSK-3α Ser21 antibody (rabbit) from Cell Signaling Technology/New England Biolabs were used.
The enzymatic reactions were carried out with AKT expressed in Sf9 cells (100 ng/reaction), substrate peptide (300 nM) and ATP (5 μM) in the absence or presence of different concentrations of compounds dissolved in DMSO. The final concentration of DMSO was 1%. The mixtures were reacted for 30 min at room temperature in assay buffer containing 50 mM Tris-HCl, 10 mM MgCl2, 1.0 mM DTT, 2 mM Na3VO4, pH 7.5, in a final volume of 40 μl. The reaction was stopped with addition of 10 μl 0,12 M EDTA/0,12 M EGTA. The reaction mixture was transferred to a SA-coated micro-titer-plate. After 1 h incubation, the plate was washed with PBS using a 384-well Embla plate washer. Anti-phospho-GSK-3α Ser21 antibody was added. After 1 h incubation the plate was washed with PBS and bound antibody was detected by addition of polyclonal<Rabbit>S-IgG-POD-conjugate from Roche Diagnostics GmbH. After 1 h incubation, the plate was washed with PBS. Amount of phosphorylated peptide was measured by an enzyme-catalyzed color reaction (ABTS conversion) and photometrical measurement at 405 nm.
Calculation of IC50 values were performed with ActivityBase.
(An ELISA detects its analyte on a solid surface through an enzyme-linked reagent.)

The record followed here is patent US6887864B2, “Azepane derivatives” (Hoffmann-La Roche Inc., priority 2002, dated 2005).

Bounds are passed on as bounds.

Usually melting point stands for the temperature of the solid-liquid transition.

T1 sequence (P31749 whole entry): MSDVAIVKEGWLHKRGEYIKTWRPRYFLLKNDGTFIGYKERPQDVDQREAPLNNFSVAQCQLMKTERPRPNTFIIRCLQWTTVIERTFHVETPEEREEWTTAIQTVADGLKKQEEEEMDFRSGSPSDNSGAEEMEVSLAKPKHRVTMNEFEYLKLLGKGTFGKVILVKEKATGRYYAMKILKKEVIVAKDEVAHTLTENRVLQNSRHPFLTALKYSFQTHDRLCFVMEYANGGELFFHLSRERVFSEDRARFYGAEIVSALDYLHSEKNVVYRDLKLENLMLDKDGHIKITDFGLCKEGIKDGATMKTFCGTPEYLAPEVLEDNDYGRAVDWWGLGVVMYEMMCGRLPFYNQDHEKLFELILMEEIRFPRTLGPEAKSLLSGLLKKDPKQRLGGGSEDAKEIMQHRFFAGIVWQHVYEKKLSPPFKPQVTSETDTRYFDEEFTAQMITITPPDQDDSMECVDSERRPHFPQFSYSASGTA

`Cc1cc(C(=O)c2ccc(C(=O)N[C@@H]3CCCNC[C@H]3NC(=O)c3ccncc3)cc2)c(O)cn1.Cl` returned a melting point of 203 to 208 °C.
For the compound `Cl.O=C(N[C@@H]1CCCNC[C@H]1NC(=O)c1ccncc1)c1ccc(C(=O)c2c(O)ccc3ncccc23)cc1`, the melting point lay within 215 to 220 °C.
With `CN(C)c1ccc(O)c(C(=O)c2ccc(C(=O)N[C@@H]3CCCNC[C@H]3NC(=O)c3ccncc3)cc2)c1.Cl`, the melting point lay in the range of 230 to 245 °C.
Still for that read-out and setting: next, `Cl.O=C(N[C@@H]1CCCNC[C@H]1NC(=O)c1ccncc1)c1ccc(C(=O)c2cc(C3CCCCN3)ccc2O)cc1` (stereo partly drawn): 195 to 210 °C; `Cc1ccc2cc(O)c(C(=O)c3ccc(C(=O)N[C@@H]4CCCNC[C@H]4NC(=O)c4ccncc4)cc3)c(F)c2n1.Cl`: 255 to 260 °C; `COc1ccc(O)c(C(=O)c2ccc(C(=O)N[C@@H]3CCCNC[C@H]3NC(=O)c3ccc(O)cc3)cc2)c1F.Cl`: 190 to 196 °C.
Still for that read-out and setting: in the case of `CC1(C)CCCNC1c1ccc(O)c(C(=O)c2ccc(C(=O)N[C@@H]3CCCNC[C@H]3NC(=O)c3ccncc3)cc2)c1F.Cl` (stereo partly drawn) it was 265 °C.
As to `Cc1cccc(C(=O)c2ccc(C(=O)N[C@@H]3CCCNC[C@H]3NC(=O)c3ccncc3)cc2)c1.Cl`, the melting point lay within 190 to 196 °C.
`COc1ccc(O)c(C(=O)c2ccc(C(=O)N[C@@H]3CCCNC[C@H]3NC(=O)c3ccncc3)cc2)c1F.Cl` [Example 1a, N-{(3R, 4R)-4-[4-(2-Fluoro-6-hydroxy-3-methoxy-benzoyl)-benzoylamino]-azepan-3-yl}-isonicotinamide hydrochloride] registered a melting point of 200 to 222 °C. Besides, the “Decrease [%] (after 4 h)” value in data set [1] was found to be 6.2%.
With `COc1ccc(O)c(C(=O)c2ccc(C(=O)N[C@@H]3CCCNC[C@H]3NC(=O)c3cc(C)c(O)c(C)c3)cc2)c1F.Cl`, the melting point lay in the range of 180 to 183 °C.
The same measure, in the same setting: in the case of `Cl.O=C(N[C@@H]1CCCNC[C@H]1NC(=O)c1ccncc1)c1ccc(C(=O)c2cc(N3CCCCC3)ccc2O)cc1` it was 218 to 224 °C.
As to `COc1ccc(O)c(C(=O)c2ccc(C(=O)N[C@@H]3CCCNC[C@H]3NC(=O)c3ccncc3)cc2)c1.Cl` [Example 2-5, N-{(3R,4R)-4-[4-(2-Hydroxy-5-methoxy-benzoyl)-benzoylamino]-azepan-3-yl}-isonicotinamide hydrochloride], the melting point fell in the range of 230 to 240 °C. Moreover, the IC50 on AKT [2] stood at 2000 nM. The IC50 against AKT [3] turned out to be 15 nM.
`Cl.O=C(N[C@@H]1CCCNC[C@H]1NC(=O)c1ccncc1)c1ccc(C(=O)c2c(O)ccc3c2OCCO3)cc1` had a melting point of 230 to 240 °C.
Same read-out and setting: next, `CN(C)c1ccc(O)c(C(=O)c2ccc(C(=O)N[C@@H]3CCCNC[C@H]3NC(=O)c3ccc(O)cc3)cc2)c1.Cl`: 203 to 206 °C; `Cl.O=C(N[C@@H]1CCCNC[C@H]1NC(=O)c1ccncc1)c1ccc(C(=O)c2c(O)cc3cccnc3c2F)cc1`: 247 to 251 °C; `CC1(C)CCCN(c2ccc(O)c(C(=O)c3ccc(C(=O)N[C@@H]4CCCNC[C@H]4NC(=O)c4ccncc4)cc3)c2)C1.Cl`: 194 to 198 °C.
On the same count and under the same terms, in the case of `CC(C)Oc1ccc(O)c(C(=O)c2ccc(C(=O)N[C@@H]3CCCNC[C@H]3NC(=O)c3ccncc3)cc2)c1.Cl` it was 243 to 249 °C.
As for `COc1ccc(O)c(C(=O)c2ccc(C(=O)N[C@@H]3CCCNC[C@H]3NC(=O)c3ccncc3)cc2)c1OC.Cl` [Example 2-4, N-{(3R,4R)-4-[4-(6-Hydroxy-2,3-dimethoxy-benzoyl)-benzoylamino]-azepan-3-yl}-isonicotinamide hydrochloride], the melting point is 185 to 193 °C. On AKT [2], the IC50 is > 24000 nM. In addition, the IC50 against AKT [3] amounted to 116 nM.
Turning to `Cc1cc(C(=O)N[C@@H]2CNCCC[C@H]2NC(=O)c2ccc(C(=O)c3cc(N(C)C)ccc3O)cc2)cc(C)c1O.Cl`, the melting point lay in the range of 217 to 219 °C.
In turn, `COc1ccc(O)c(C(=O)c2ccc(C(=O)N[C@@H]3CCCNC[C@H]3NC(=O)c3ccnc(N)c3)cc2)c1F.Cl` registered a melting point of 223 to 241 °C.
Still for that read-out and setting: in the case of `Cl.NCc1ccc(O)c(C(=O)c2ccc(C(=O)N[C@@H]3CCCNC[C@H]3NC(=O)c3ccncc3)cc2)c1` it was 215 to 218 °C.
Compound `CSc1ccc(O)c(C(=O)c2ccc(C(=O)N[C@@H]3CCCNC[C@H]3NC(=O)c3ccncc3)cc2)c1.Cl` [Example 2-2, N-{(3R,4R)-4-[4-(6-Hydroxy-3-methylsulfanyl-benzoyl)-benzoylamino]-azepan-3-yl}-isonicotinamide hydrochloride] had a melting point of 183 to 185 °C. Moreover, at AKT [2], the IC50 amounted to 1500 nM. The compound further showed an IC50 against AKT [3] of 11 nM. The “Decrease [%] (after 4 h)” value in data set [1] was 26.9%.
For the compound `Cc1ccc(O)c(C(=O)c2ccc(C(=O)N[C@@H]3CCCNC[C@H]3NC(=O)c3ccncc3)cc2)c1.Cl` [Example 2-6, N-{(3R,4R)-4-[4-(2-Hydroxy-5-methyl-benzoyl)-benzoylamino]-azepan-3-yl}-isonicotinamide hydrochloride], the melting point was 215 to 219 °C. In addition, the IC50 on AKT [2] was determined as 1000 nM. This compound showed an IC50 against AKT [3] of 16 nM.
`CC(C)(C)c1ccc2cc(O)c(C(=O)c3ccc(C(=O)N[C@@H]4CCCNC[C@H]4NC(=O)c4ccncc4)cc3)c(F)c2n1.Cl` yielded a melting point of 215 °C.
On the same count and under the same terms, in the case of `CC1(C)CCN(c2ccc(O)c(C(=O)c3ccc(C(=O)N[C@@H]4CCCNC[C@H]4NC(=O)c4ccncc4)cc3)c2)CC1.Cl` it was 229 to 234 °C; in that of `Cl.O=C(N[C@@H]1CCCNC[C@H]1NC(=O)c1ccncc1)c1ccc(C(=O)c2cc(O)ccc2O)cc1`, 108 to 114 °C.
Turning to `Cc1ccc(O)c(C(=O)c2ccc(C(=O)N[C@@H]3CCCNC[C@H]3NC(=O)c3ccncc3)cc2)c1F.Cl` [Example 2-1, N-{(3R,4R)-4-[4-(2-Fluoro-6-hydroxy-3-methyl-benzoyl)-benzoylamino]-azepan-3-yl}-isonicotinamide hydrochloride], the melting point lay within 181 to 184 °C. Further, at AKT [2], the IC50 came to 3000 nM. In addition, the IC50 on AKT [3] came out at 7 nM. Further, in data set [1], the “Decrease [%] (after 4 h)” value is reported as 21.9%.
In the case of `CC(C)Nc1ccc(O)c(C(=O)c2ccc(C(=O)N[C@@H]3CCCNC[C@H]3NC(=O)c3ccncc3)cc2)c1.Cl`, the melting point was 227 to 230 °C.
The same measure, in the same setting: in the case of `COc1ccc(O)c(C(=O)c2ccc(C(=O)N[C@@H]3CCCNC[C@H]3NC(=O)c3ccncn3)cc2)c1F.Cl` it was 256 to 265 °C.
